In US5232917A, “Methods, compositions, and compounds for allosteric modulation of the GABA receptor by members of the androstane and pregnane series” (priority 1991, dated 1993):
Like-named read-outs stand apart in the source and are kept apart here.

Experiments:
[1] = target: T1, progesterone receptor (Bos taurus, UniProt F1N712); assay: Inhibition of 3H-progesterone binding to bovine uteral progesterone receptors
T1 construct: from tissue; host or cells: bovine uterus cytosol
T1 sequence (F1N712 1-914): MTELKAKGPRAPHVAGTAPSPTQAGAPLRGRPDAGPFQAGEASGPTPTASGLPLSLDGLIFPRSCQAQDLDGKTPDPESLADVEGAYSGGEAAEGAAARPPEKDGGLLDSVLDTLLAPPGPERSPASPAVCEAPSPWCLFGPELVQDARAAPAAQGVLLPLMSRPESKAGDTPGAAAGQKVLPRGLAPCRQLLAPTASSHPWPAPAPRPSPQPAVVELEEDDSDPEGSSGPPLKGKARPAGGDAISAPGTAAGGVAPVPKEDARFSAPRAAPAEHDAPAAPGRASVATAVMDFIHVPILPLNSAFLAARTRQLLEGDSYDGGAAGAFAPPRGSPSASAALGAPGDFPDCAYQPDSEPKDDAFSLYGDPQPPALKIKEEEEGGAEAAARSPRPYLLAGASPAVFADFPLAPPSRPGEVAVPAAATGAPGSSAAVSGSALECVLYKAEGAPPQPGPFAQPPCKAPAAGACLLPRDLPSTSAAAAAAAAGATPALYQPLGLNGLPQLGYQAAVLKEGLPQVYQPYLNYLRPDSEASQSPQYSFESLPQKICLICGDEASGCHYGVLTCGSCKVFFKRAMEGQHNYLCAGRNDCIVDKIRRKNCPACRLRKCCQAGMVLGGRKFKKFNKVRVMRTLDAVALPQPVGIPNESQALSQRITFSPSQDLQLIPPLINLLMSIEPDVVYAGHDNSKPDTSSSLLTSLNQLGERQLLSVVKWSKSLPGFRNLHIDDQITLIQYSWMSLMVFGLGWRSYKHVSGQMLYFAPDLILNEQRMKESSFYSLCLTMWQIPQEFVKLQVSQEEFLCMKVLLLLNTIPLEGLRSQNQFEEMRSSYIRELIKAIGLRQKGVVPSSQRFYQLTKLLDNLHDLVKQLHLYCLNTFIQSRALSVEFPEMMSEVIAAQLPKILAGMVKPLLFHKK
Procedure: The hormonal activity of drugs described herein was further studied through testing their potential estrogenic, progestinic, mineralocorticoid and glucocorticoid activities. These activities were analyzed by monitoring the ability of the drugs to inhibit binding of the steroid hormones to their respective hormone receptors.
For the data presented in Table 9, bovine uteri cytosol was isolated as they were for Table 7 and used for following binding to progesterone receptors by following the inhibition of ^3 H-progesterone, the natural ligand.

[2] = tested on: metrazol-induced seizures; assay: Time course of antimetrazol activity of prodrugs; type: in vivo, mice (CF1); conditions: 60 mg/kg ip; for responders at 60 mg/kg: Mus musculus
[3] = target: GABA receptor-chloride ionophore complex (GR complex); assay: [35S]TBPS binding modulation assay; conditions: for Max. Inhib., maximal % of specifically bound [35S]-TBPS displaced: saturating concentrations of test compound
[4] = read-out: % of inhibition of 3H-progesterone binding, A, competitor 10^-5 M, 0.15 nM 3H-progesterone
[5] = read-out: % of inhibition of 3H-progesterone binding, B, competitor 10^-5 M, 0.25 nM 3H-progesterone
[6] = 1 hr, read-out: Antimetrazol activity, % of animals protected, 1 hr
[7] = 4 hr, read-out: Antimetrazol activity, % of animals protected, 4 hr
[8] = read-out: IC50, inhibition of [35S]-TBPS binding, +5 μM GABA, in the presence of 5 μM GABA
[9] = read-out: IC50, inhibition of [35S]-TBPS binding, No GABA, washed synaptoneurosomes, no GABA added
[10] = washed synaptoneurosomes, no GABA added
[11] = read-out: % of inhibition of 3H-progesterone binding, A, competitor 10^-6 M, 0.15 nM 3H-progesterone
[12] = read-out: % of inhibition of 3H-progesterone binding, B, competitor 10^-6 M, 0.25 nM 3H-progesterone

SMILES | responders at 60 mg/kg [2, 6] | IC50 [3, 8] | Max. Inhib., maximal % of specifically bound [35S]-TBPS displaced [3] | also measured
C[C@H](O)[C@H]1CC[C@H]2[C@@H]3CC[C@@H]4C[C@H](O)CC[C@]4(C)[C@H]3CC[C@]12C [5β-pregnan-3α,20α-diol] |  |  |  | inhibition at 10 µM [1, 4]: 1%; inhibition at 10 µM [1, 5]: 1%
CC(=O)OCC(=O)[C@H]1CC[C@H]2[C@@H]3CC[C@H]4C[C@H](O)CC[C@]4(C)[C@H]3CC[C@]12C | 50% |  |  | responders at 60 mg/kg [2, 7]: 0%
CC(=O)[C@H]1CC[C@H]2[C@@H]3CC[C@H]4C[C@H](O)CC[C@]4(C)[C@H]3C(=O)C[C@]12C [alphaxalone, 5α-PREGNAN-3α-OL-11,20-DIONE, reference compound] |  | 0.264 µM |  | IC50 [3, 9]: 11 µM
CC(=O)OCC(=O)[C@H]1CC[C@H]2[C@@H]3CC[C@H]4C[C@H](OC(C)=O)CC[C@]4(C)[C@H]3CC[C@]12C | 0% |  |  | responders at 60 mg/kg [2, 7]: 0%
C[C@]12CC[C@@H](O)C[C@@H]1CC[C@@H]1[C@@H]2CC[C@]2(C)[C@@H](C(=O)CCl)CC[C@@H]12 [21-CHLORO-5α-PREGNAN-3α-OL-20-ONE] |  | 0.08 µM | 100% | 
CC(=O)[C@H]1CC[C@H]2[C@@H]3CC[C@H]4C[C@H](OC(=O)C5=CN(C)C=CC5)CC[C@]4(C)[C@H]3CC[C@]12C | 0% |  |  | Antimetrazol activity, % of animals protected, 20 hr [2]: 63%; responders at 60 mg/kg [2, 7]: 0%
C[C@@H](O)[C@H]1CC[C@H]2[C@@H]3CC[C@H]4C[C@H](O)CC[C@]4(C)[C@H]3CC[C@]12C [5α-PREGNAN-3α,20β-DIOL] |  | 1 µM | 100% | 
C[C@]12CC[C@@H](O)C[C@@H]1CC[C@@H]1[C@@H]2CC[C@]2(C)[C@@H](C(=O)O)CC[C@@H]12 [3α-HYDROXY-5α-ANDROSTAN-17β-CARBOXYLATE, 3α-Hydroxy-5α-androstane-17β-carboxylic acid] |  | 2.68 µM | 63% | 
C[C@]12CCC(=O)C[C@@H]1CC[C@@H]1[C@@H]2CC[C@]2(C)[C@@H](O)CC[C@@H]12 [5α-ANDROSTAN-17β-OL-3-ONE, 5α-ANDROSTAN-17β-OL-3- ONE, reference compound] |  | 18 µM | 52% | IC50 [3, 9]: > 100 µM
COc1ccc(C(=O)O[C@@H]2CC[C@@]3(C)[C@@H](CC[C@@H]4[C@@H]3CC[C@]3(C)[C@@H](C(C)=O)CC[C@@H]43)C2)cc1 | 17% |  |  | responders at 60 mg/kg [2, 7]: 17%
CC(=O)[C@H]1CC[C@H]2[C@@H]3CC[C@H]4C[C@H](OC(=O)C5CCC5)CC[C@]4(C)[C@H]3CC[C@]12C | 17% |  |  | Antimetrazol activity, % of animals protected, 20 hr [2]: 17%
CC(=O)[C@H]1CC[C@H]2[C@@H]3CC=C4C[C@@H](O)CC[C@]4(C)[C@H]3CC[C@]12C [5-PREGNEN-3β-OL-20-ONE (PREGNENOLONE), 5-PREGNEN-3β-OL-20-ONE, reference compound] |  | > 100 µM | 30% | IC50, inhibition of [35S]-TBPS binding, No GABA [3, 10]: Inactive
CC(C)(O)[C@H]1CC[C@H]2[C@@H]3CC[C@H]4C[C@](C)(O)CC[C@]4(C)[C@H]3CC[C@]12C [3α,20-dihydroxy-3β,20-dimethyl-5α-pregnane] |  |  | 50% | inhibition at 10 µM [1, 4]: 5%; inhibition at 1 µM [1, 11]: 8%; inhibition at 10 µM [1, 5]: 0%; inhibition at 1 µM [1, 12]: 0%
CC(=O)[C@H]1CC[C@H]2[C@@H]3CC[C@H]4C[C@@H]5O[C@@H]5C[C@]4(C)[C@H]3CC[C@]12C [2,3-EPOXY-5α-PREGNAN-20-ONE, 2α,3α-Epoxy-5α-pregnan-20-one, reference compound] |  | 100 µM |  | 
CC(=O)C1=CC[C@H]2[C@@H]3CC[C@H]4C[C@H](O)CC[C@]4(C)[C@H]3CC[C@]12C [3α-HYDROXY-5α-PREGN-16-EN-20-ONE] |  | 0.161 µM | 100% | 
C/C=C1/CC[C@H]2[C@@H]3CC[C@H]4C[C@H](O)CC[C@]4(C)[C@H]3CC[C@]12C [3α-HYDROXY-5α-CIS-PREGN-17(20)-ENE, 3α-hydroxy-(5α)-cis-pregn-17(20)-ene] |  | 0.068 µM | 100% | 
C[C@]12CC[C@@H](O)C[C@@H]1CC[C@@H]1[C@@H]2CC[C@]2(C)[C@@H](O)CC[C@@H]12 [5α-ANDROSTAN-3α,17β-DIOL, 5α-ANDROSTAN-3α ,17β-DIOL] |  | 1 µM | 100% | IC50 [3, 9]: 15 µM
CC(C)CCC[C@@H](C)[C@H]1CC[C@H]2[C@@H]3CC=C4C[C@@H](O)CC[C@]4(C)[C@H]3CC[C@]12C [CHOLESTEROL, reference compound] |  |  | 0% | IC50, inhibition of [35S]-TBPS binding, +5 μM GABA ([3]; in the presence of 5 μM GABA): Inactive; potency/activity at the GR complex ([3]; modulation of [35S]TBPS binding): essentially inactive; IC50, inhibition of [35S]-TBPS binding, No GABA [3, 10]: Inactive
CCC(=O)O[C@@H]1CC[C@@]2(C)[C@@H](CC[C@@H]3[C@@H]2CC[C@]2(C)[C@@H](C(C)=O)CC[C@@H]32)C1 | 75% |  |  | responders at 60 mg/kg [2, 7]: 0%
CC(=O)OCC(=O)[C@H]1CC[C@H]2[C@@H]3CC[C@H]4C[C@H](OC(=O)C(C)C)CC[C@]4(C)[C@H]3CC[C@]12C | 63% |  |  | responders at 60 mg/kg [2, 7]: 13%
CCCC(=O)O[C@@H]1CC[C@@]2(C)[C@@H](CC[C@@H]3[C@@H]2CC[C@]2(C)[C@@H](C(C)=O)CC[C@@H]32)C1 | 75% |  |  | responders at 60 mg/kg [2, 7]: 13%
CC(=O)C1=CC[C@H]2[C@@H]3CC[C@@H]4C[C@H](O)CC[C@]4(C)[C@H]3CC[C@]12C [3α-HYDROXY-5β-PREGN-16-EN-20-ONE] |  | 1 µM | 100% | 
CC(=O)[C@H]1CC[C@H]2[C@@H]3CC[C@H]4C[C@@](C)(O)CC[C@]4(C)[C@H]3CC[C@]12C [3β-HYDROXY-3α-METHYL-5α-PREGNAN-20-ONE, 3β-HYDROXY-3α-METHYL-5α- PREGNAN-20-ONE] |  | 7.4 µM | 55% | 
C[C@]12CC[C@@H](O)C[C@@H]1CC[C@H]1[C@@H]3CC[C@H](C(=O)CO)[C@@]3(C)CC(=O)[C@@H]12 [5α-PREGNAN-3α,21-DIOL-11,20-DIONE, 5α-PREGNAN-3α,21-DIOL- 11,20-DIONE] |  | 5.5 µM |  | IC50 [3, 9]: > 100 µM
CC(=O)[C@H]1CC[C@H]2[C@@H]3CC[C@H]4C[C@H](OC(=O)c5ccccc5)CC[C@]4(C)[C@H]3CC[C@]12C | 33% |  |  | 
C[C@]12C[C@H](O)[C@H]3[C@@H](CCC4=CC(=O)CC[C@@]43C)[C@@H]1CC[C@@H]2C(=O)CO [4-PREGNEN-11b,21-DIOL- 3,20-DIONE, reference compound] |  | > 100 µM | 21% | IC50, inhibition of [35S]-TBPS binding, No GABA [3, 10]: Inactive
CC(=O)O[C@@H]1CC[C@@]2(C)[C@@H](CC[C@@H]3[C@@H]2CC[C@]2(C)[C@@H](C(C)=O)CC[C@@H]32)C1 [CH3] | 25% |  |  | 
CC(=O)[C@H]1CC[C@H]2[C@@H]3CC[C@@H]4C[C@H](O)CC[C@]4(C)[C@H]3CC[C@]12C [5β-pregnan-3α,ol-20-one] |  |  |  | inhibition at 10 µM [1, 4]: 17%; inhibition at 1 µM [1, 11]: 9%; inhibition at 10 µM [1, 5]: 13%; inhibition at 1 µM [1, 12]: 1%
C[C@]12CC[C@@H]3c4ccc(O)cc4CC[C@H]3[C@@H]1CC[C@@H]2O [17β-ESTRADIOL, reference compound] |  |  | 0% | IC50, inhibition of [35S]-TBPS binding, +5 μM GABA ([3]; in the presence of 5 μM GABA): Inactive; IC50, inhibition of [35S]-TBPS binding, No GABA [3, 10]: Inactive
CO[C@@H]1C[C@H]2[C@@H]3CC[C@H]4C[C@H](O)CC[C@]4(C)[C@H]3CC[C@]2(C)[C@H]1C(C)=O [3α-HYDROXY-5α-PREGNAN-16α-METHOXY-20-ONE] |  | 4.5 µM | 73% | 
